{"source": "patent US20160250285A1", "about": "“NEUROPROTECTIVE PEPTIDES” (priority 2013, published 2016)", "key": {"[1]": {"tested_on": "intracellular calcium influx in neuronal cultures", "test": "Intracellular calcium influx (Fura-2 AM) after glutamic acid", "assay_type": "cell-based, rat", "conditions": "peptide 5 μM for 10 min, removed before 100 μM glutamic acid (FIG. 44)", "description": "Fura-2 AM was used for intracellular calcium assessment. Representative fluorescent Fura-2 AM tracers; fluorescence intensity (FI) of neuronal cultures 30 sec before and following addition (arrow) of glutamic acid (100 μM final concentration). Peptides or glutamate receptor blockers were added to neuronal cultures for 10 min and removed (time 0) before glutamic acid. Values are mean±SE; n=3. Peptide concentration was 5 μM.\nBriefly, cortical tissue from E18-E19 Sprague-Dawley rats was dissociated in Dulbecco's modified Eagle medium (DMEM; Invitrogen, Australia) supplemented with 1.3 mM L-cysteine, 0.9 mM NaHCOa, 10 units/ml papain (Sigma, USA) and 50 units/ml DNase (Sigma) and washed in cold DMEM/10% horse serum. Neurons were resuspended in Neurobasal (Invitrogen) containing 2% B27 supplement (B27; Invitrogen). Before seeding, 96-well sized glass wells (6 mm diameter, ProTech, Australia) or 96-well plastic plates (ProSciTech, Australia) were coated with poly-D-lysine overnight (50 ml/well: 50 mg/mL; 70-150 K, Sigma). Excess poly-D-lysine solution was then removed and replaced with Neurobasal (containing 2% B27; 4% fetal bovine serum; 1% horse serum; 62.5 mM glutamate; 25 mM 2-mercaptoethanol; and 30 mg/mL streptomycin and 30 mg/mL penicillin). Neurons were plated to obtain ≈10,000 viable neurons for each well on day in vitro 11-12. Neuronal cultures were maintained in a CO2 incubator (5% CO2, 95% air balance, 98% humidity) at 37° C. On day in vitro 4 one third of the culture medium was removed and replaced with fresh Neurobasal/2% B27 containing the mitotic inhibitor, cytosine arabinofuraNOside (1 mM final concentration; Sigma). On day in vitro 8 one half of the culture medium was replaced with Neurobasal/2% B27. Cultures were used on day in vitro 11 or 12 after which time they routinely consist of >97% neurons and 1-3% astrocytes (Meloni et al. 2001)."}, "[2]": {"tested_on": "primary cortical neuronal cultures", "test": "In vitro ischemia / oxygen-glucose deprivation (OGD) model, neurons", "assay_type": "cell-based, rat", "conditions": "for neuroprotection when added for 15 minutes after OGD: FIGS. 31, 20, 22, 1 μM and 5 μM in FIG. 31", "description": "Establishment of cortical cultures was as previously described (Meloni et al. 2001). Briefly, cortical tissue from E18-E19 Sprague-Dawley rats was dissociated in Dulbecco's modified Eagle medium (DMEM; Invitrogen, Australia) supplemented with 1.3 mM L-cysteine, 0.9 mM NaHCOa, 10 units/ml papain (Sigma, USA) and 50 units/ml DNase (Sigma) and washed in cold DMEM/10% horse serum. Neurons were resuspended in Neurobasal (Invitrogen) containing 2% B27 supplement (B27; Invitrogen). Before seeding, 96-well sized glass wells (6 mm diameter, ProTech, Australia) or 96-well plastic plates (ProSciTech, Australia) were coated with poly-D-lysine overnight (50 ml/well: 50 mg/mL; 70-150 K, Sigma). Excess poly-D-lysine solution was then removed and replaced with Neurobasal (containing 2% B27; 4% fetal bovine serum; 1% horse serum; 62.5 mM glutamate; 25 mM 2-mercaptoethanol; and 30 mg/mL streptomycin and 30 mg/mL penicillin). Neurons were plated to obtain ≈10,000 viable neurons for each well on day in vitro 11-12. Neuronal cultures were maintained in a CO2 incubator (5% CO2, 95% air balance, 98% humidity) at 37° C. On day in vitro 4 one third of the culture medium was removed and replaced with fresh Neurobasal/2% B27 containing the mitotic inhibitor, cytosine arabinofuraNOside (1 mM final concentration; Sigma). On day in vitro 8 one half of the culture medium was replaced with Neurobasal/2% B27. Cultures were used on day in vitro 11 or 12 after which time they routinely consist of >97% neurons and 1-3% astrocytes (Meloni et al. 2001).\nThe in vitro ischemia model used for primary cortical neuronal cultures was performed as previously described (Meloni et at 2011) Briefly, culture media was removed from wells (glass 96-well plate format) and washed with 315 μl of glucose free balanced salt solution (BSS; mM: 116 NaCl, 5.4 KCl, 1.8 CaCl2, 0.8 MgSO4, 1 NaH2PO4; pH 6.9) before the addition of 60 μl BSS containing cell penetrating or control peptides (see Table 1). A non-peptide positive control consisting of the glutamate receptor blockers (5 μM MK801/5 μM 6-cyano-7-nitroquinoxaline: MK801/CNQX) was also included. In vitro ischemia was initiated by placing wells in an anaerobic incubator (Don Whitely Scientific, England; atmosphere of 5% CO2, 10% H2 and 85% argon, 98% humidity) at 37° C. for 55 minutes. Upon removal from the anaerobic incubator, 60 μl of Neurobasal/2% N2 supplement was added to the wells and cultures incubated for a further 24 hours at 37° C. in the CO2 incubator. Control cultures received the same BSS wash procedures and media additions as ischemic treated cultures before incubation at 37° C. in the CO2 incubator.\nControl cultures underwent the same BSS wash procedures and media additions as OGD treated cultures.\nTwenty-four hours after insult, neuronal cultures were examined by light microscopy for qualitative assessment of neuronal cell viability. Neuronal viability was quantitatively measured by 3-(4,5,dimethyliazol-2-yl)-5-(3-carboxymethoxy-phenyl)-2-(4-sulfophenyl)-2H-tetrazolium salt (MTS) assay (Promega, Australia). The MTS assay measures the cellular conversion of the tetrazolium salt to a water-soluble brown formazan salt, which is detected spectrophotometrically at 490 nm. MTS absorbance data were converted to reflect proportional cell viability relative to both the untreated and treated controls, with the untreated control taken as 100% viability, and presented as mean±SEM. […] Viability data was analysed by ANOVA, followed by post-hoc Fischer's PLSD test, with P<0.05 values considered statistically significant. Four- to six wells were used in all assays."}, "[3]": {"tested_on": "permanent middle cerebral artery occlusion (MCAO) stroke model", "test": "Rat permanent middle cerebral artery occlusion (MCAO) stroke model", "assay_type": "in vivo", "conditions": "1 μmol/kg intravenously 30 min post-MCAO", "procedure": "Administration of peptide (DR9: rrrrrrrrr-NH2; R12, R15, R18, protamine sulphate; protamine) or vehicle (saline: 0.9% NaCl) treatment solution was performed at 30 min post-MCAO. The peptide treatment comprised DR9 in saline (600 μl) to provide an intravenous loading dose of 1 μmol/kg or 1000 nmol/kg given over 5-6 min via the right jugular vein.\nThis study was approved by the Animal Ethics Committee of the University of Western Australia. Male Sprague Dawley rats weighing 270 g to 350 g were kept under controlled housing conditions with 12 hour light-dark cycle with free access to food and water. Experimental animals were fasted overnight and subjected to permanent middle cerebral artery occlusion (MCAO) as follows.\nAnaesthesia was induced with 4% isoflurane and a 2:1 mix of N2O and O2 via mask. Anaesthesia was maintained at 1.7-2% isoflurane. Cerebral blood flow (CBF) was monitored continuously using laser Doppler flowmetry (Blood FlowMeter, AD Instruments, Sydney, Australia). The probe was located 1 mm caudal and 4 mm lateral (right) to the bregma. A cannula was inserted in the right femoral artery to continuously monitor blood pressure and to provide samples for blood glucose and blood gas readings. Blood glucose was measured using a glucometer (MediSense Products, Abbott Laboratories, Bedford, Mass., USA) and blood gases were measured using a blood gas analyser (ABL5, Radiometer, Copenhagen, Denmark). Blood pressure was maintained at 80-100 mmHg. During surgery, rectal temperature was maintained at 37±0.5° C. and warming applied with a fan heater when necessary. For intravenous infusions, a length of PVC line primed with heparinised saline was tied in place in the right jugular vein, then externalised through a dorsal mid-scapular incision to a tether/swivel system (Instech Laboratories, Philadelphia, USA) designed to permit free movement.\nThe right common carotid artery (CCA) was exposed via a ventral neck incision. […] The isolated section of the ECA was ligated and cauterised to create a stump. The carotid body was removed and the pterygopalatine artery was ligated. A 4-0 nylon monofilament with a 0.39 mm diameter silicone tip (Doccol, Redlands, Calif., USA) was inserted through the ECA stump into the CCA and advanced rostrally into the internal carotid artery (ICA) until the laser Doppler flowmetry recorded a >30% decrease from baseline of cerebral blood flow. The monofilament was secured in two places (at the base of the ECA stump and on the ICA) for the remainder of the experiment. Animals were given post-operative analgesia consisting of pethidine (3 mg/kg intramuscular) and bupivacaine (1.5 mg/kg subcutaneously) at head and leg incision sites.\nPost-surgery animals were allowed to recover in a climate-controlled chamber and their core body temperature monitored and maintained at 37±0.5° C. by a cooling/heating fan when required for 3-4 hours.\nAnimals were sacrificed 24 hours post-MCAO with intra-peritoneal injections of sodium pentobarbitone (900 mg/kg). […] Slices were scanned and images were analysed by an operator blind to treatment status using ImageJ 3rd edition (NIH, USA). The total infarct volume was determined by adding the areas of infarcted tissue on both sides of the 2 mm sections. These measured areas were multiplied by half slice thickness (1 mm), and corrected for cerebral oedema by multiplying the ratio of affected to normal hemisphere areas. […]"}, "[4]": {"tested_on": "primary cortical neuronal cultures", "procedure": "Briefly, cortical tissue from E18-E19 Sprague-Dawley rats was dissociated in Dulbecco's modified Eagle medium (DMEM; Invitrogen, Australia) supplemented with 1.3 mM L-cysteine, 0.9 mM NaHCOa, 10 units/ml papain (Sigma, USA) and 50 units/ml DNase (Sigma) and washed in cold DMEM/10% horse serum. Neurons were resuspended in Neurobasal (Invitrogen) containing 2% B27 supplement (B27; Invitrogen). Before seeding, 96-well sized glass wells (6 mm diameter, ProTech, Australia) or 96-well plastic plates (ProSciTech, Australia) were coated with poly-D-lysine overnight ([…]: 50 mg/mL; 70-150 K, Sigma). […] Neurons were plated to obtain ≈10,000 viable neurons for each well on day in vitro 11-12. […] On day in vitro 4 one third of the culture medium was removed and replaced with fresh Neurobasal/2% B27 containing the mitotic inhibitor, cytosine arabinofuraNOside (1 mM final concentration; Sigma). On day in vitro 8 one half of the culture medium was replaced with Neurobasal/2% B27.\nTo induce excitotoxicity, 50 μl of Neurobasal/2% B27 containing glutamic acid (200 μM) or kainic acid (400 μM) or NMDA (200 μM) was added to the culture wells (100 μM glutamic acid, 200 μM kainic acid and NMDA 100 μM final concentration). Cultures were incubated at 37° C. in the CO2 incubator for 5 minutes for glutamic acid, 45 minutes for kainic acid and 10 minutes for NMDA exposure, after which time the media was replaced with 100 μl of 50% Neurobasal/2% N2 supplement (Invitrogen) and 50% balanced salt solution (BSS; see below). Cultures were incubated for a further 24 hours at 37° C. in the CO2 incubator. The untreated controls with or without glutamic acid or kainic acid treatment received the same wash steps and media additions.\nFollowing this step, cultures were treated as described above. Untreated controls with or without glutamic acid exposure received the same wash steps and media additions. In addition, a post-glutamic acid exposure CPP treatment (5 μM) experiment was performed for the R9 peptide and the JNKI-1D-TAT control peptide.\nFor pre-glutamic acid exposure experiments, neurons were exposed to peptide(s) for a 10 minute period, immediately before or 1, 2, 3, 4 or 5 hours prior to glutamic acid exposure. […] At the relevant peptide pre-treatment time, media was removed and replaced with 100 μl of Neurobasal/2%. […] Following 5-minute glutamic acid exposure, neuronal culture wells were treated as described above. For all experiments untreated controls with or without glutamic acid treatment underwent the same incubation steps and media additions.\nHeparin (for injection) was obtained from Pfizer (1000 IU/ml). Two different heparin experiments were performed: 1. Peptides were incubated with heparin (20 IU/ml) in Neurobasal/B27 for 5 minutes at room temperature, before addition to culture wells (50 μl) for 15 minutes at 37° C. in the CO2 incubator. Following the incubation period, media in wells was removed and replaced with 100 μl of Neurobasal/2% B27 containing glutamic acid (100 μM), and subsequently treated as described above; 2. Media in wells was replaced with Neurobasal/2% B27 containing heparin (50 μl; 40 IU/ml) and incubated for 5 minutes at 37° C. in the CO2 incubator. After the incubation period, peptides or glutamate receptor blockers (MK801/CNQX) in Neurobasal/2% B27 (50 μl) were added to the culture wells and cultures incubated for a further 10 minutes at 37° C. in the CO2 incubator. Following the incubation period, media in wells was removed and replaced with 100 μl of Neurobasal/2% B27 containing glutamic acid (100 μM), and subsequently treated as described above. For all experiments, non-heparin treated peptide controls with glutamic acid treatment underwent the same incubation steps and media additions.\nTwenty-four hours after insult, neuronal cultures were examined by light microscopy for qualitative assessment of neuronal cell viability."}, "[5]": {"tested_on": "brain endothelial cells (bEND3 cells)", "test": "In vitro ischemia/OGD model, bEND3 cells", "assay_type": "cell-based", "conditions": "peptide during/after ischemia (FIG. 3c) or 15 min before OGD (FIGS. 23, 24)", "description": "The in vitro ischemia model was also used for bEND3 cells, SH-SY5Y cells, and astrocytes. For bEND3 cells anaerobic incubation was extended to 2-3 hours and upon removal from the anaerobic incubator, 60 μl of DMEM/2% FCS was added to wells. […] Upon removal from the anaerobic incubator, 60 μl of DMEM/2% FCS was added to wells.\nTwenty-four hours after insult, neuronal cultures were examined by light microscopy for qualitative assessment of neuronal cell viability. Neuronal viability was quantitatively measured by 3-(4,5,dimethyliazol-2-yl)-5-(3-carboxymethoxy-phenyl)-2-(4-sulfophenyl)-2H-tetrazolium salt (MTS) assay (Promega, Australia). The MTS assay measures the cellular conversion of the tetrazolium salt to a water-soluble brown formazan salt, which is detected spectrophotometrically at 490 nm. MTS absorbance data were converted to reflect proportional cell viability relative to both the untreated and treated controls, with the untreated control taken as 100% viability, and presented as mean±SEM. For studies using astrocytes, bEND3, and SH-Y5Y cells, raw MTS data was used to generate graphs. Viability data was analysed by ANOVA, followed by post-hoc Fischer's PLSD test, with P<0.05 values considered statistically significant. Four- to six wells were used in all assays."}, "[6]": {"tested_on": "primary rat astrocytes", "test": "Astrocyte toxicity model", "assay_type": "cell-based", "conditions": "2.5 to 10 μM, 24 hour exposure (FIG. 43)", "procedure": "A brain endothelial cell line (bEND3) and a neuroblastoma cell line (SH-SY5Y) were also used for some experiments. bEND3 and SH-SY5Y cells were cultured using standard techniques in DMEM plus 5 or 15% foetal calf serum. Rat primary astrocytes were obtained and cultured as described for cortical neurons except DMEM plus 10% foetal calf serum was used instead of Neurobasal/2% B27, and the mitotic inhibitor, cytosine arabinofuraNOside was not used.\nFor neuronal cultures peptides were added to culture wells (96-well plate format) by removing media and adding 100 μl of 50% Neurobasal/2% N2 supplement and 50% BSS containing CPPs, JNKI-1 D-TAT or TAT-NR2B9c. Control cultures received of 50% Neurobasal/2% N2 supplement and 50% BSS media only. Cultures were incubation at 37° C. in the CO2 incubator for 20 hours, after which time cell viability was assessed using the MTS assay. For bEND3 cultures, peptides were added to culture wells (96-well plate format) by removing media and adding 100 μl of DMEM/2% FCS containing peptide. Control cultures received 100 μl of DMEM/2% FCS only, Cultures were incubation at 37° C. in the CO2 incubator for 0.5, 1 or 2 hours, after which time cell viability was assessed using the MTS assay. […] Cultures were incubation at 37° C. in the CO2 incubator for 24 hours, after which time cell viability was assessed using the MTS assay.\nTwenty-four hours after insult, neuronal cultures were examined by light microscopy for qualitative assessment of neuronal cell viability. Neuronal viability was quantitatively measured by 3-(4,5,dimethyliazol-2-yl)-5-(3-carboxymethoxy-phenyl)-2-(4-sulfophenyl)-2H-tetrazolium salt (MTS) assay (Promega, Australia). The MTS assay measures the cellular conversion of the tetrazolium salt to a water-soluble brown formazan salt, which is detected spectrophotometrically at 490 nm. MTS absorbance data were converted to reflect proportional cell viability relative to both the untreated and treated controls, with the untreated control taken as 100% viability, and presented as mean±SEM. […]"}}, "note": "“Also recorded” adds a separate entry of the source. Ends that are not written are not given here.", "data": [{"compound": "N=C(N)NCCC[C@H](NC(=O)[C@H](CCCNC(=N)N)NC(=O)[C@H](CCCNC(=N)N)NC(=O)[C@H](CCCNC(=N)N)NC(=O)[C@H](CCCNC(=N)N)NC(=O)[C@H](CCCNC(=N)N)NC(=O)[C@H](CCCNC(=N)N)NC(=O)[C@H](CCCNC(=N)N)NC(=O)[C@H](CCCNC(=N)N)NC(=O)[C@H](CCCNC(=N)N)NC(=O)[C@H](CCCNC(=N)N)NC(=O)[C@@H](N)CCCNC(=N)N)C(=O)O", "note": "[Peptide R12]", "values": [{"measurement": "calcium influx after glutamic acid", "setting": "[1]", "value": "to varying degrees reduced calcium influx"}, {"measurement": "neuroprotection, peptide for 10 minutes, 1 to 3 hours prior to OGD", "setting": "[2]; FIG. 32", "value": "effective"}, {"measurement": "neuroprotection when added for 15 minutes after OGD", "setting": "[2]", "value": "Neuroprotection is displayed"}, {"measurement": "neuroprotection when added post-in vitro ischemia/OGD", "setting": "[2]; added after anaerobic incubation until experiment end (FIGS. 3b, 16, 17)", "value": "displayed neuroprotective effects; also recorded: effective"}, {"measurement": "neuroprotective activity in vivo", "setting": "[3]", "value": "possessed neuroprotective activity in vivo"}, {"measurement": "neuroprotection when added immediately after glutamic acid exposure", "setting": "[4]; 0 min post-insult (FIG. 1d)", "value": "highly effective"}, {"measurement": "neuroprotection, milder insult", "setting": "[4]; FIG. 1i, comparison at 0.5 μM and 1 μM", "value": "more effective than R9"}, {"measurement": "neuroprotection, peptide present during the 5 minute glutamic acid insult only", "setting": "[4]; FIG. 28", "value": "effective"}, {"measurement": "neuroprotection, 10 minute pre-exposure removed immediately prior to insult", "setting": "[4]; FIG. 29, FIG. 14", "value": "effective"}, {"measurement": "neuroprotection, peptide for 10 minutes, 1 to 4 hours prior to glutamic acid insult", "setting": "[4]; FIG. 30", "value": "effective"}, {"measurement": "effect of heparin on neuroprotective action", "setting": "[4]; heparin 20 IU/ml with peptide or 40 IU/ml on cultures (FIGS. 39, 40)", "value": "blocks neuroprotective actions"}, {"measurement": "IC50", "setting": "[4]; read-out: IC50: Glutamic acid model, Table 4, polyarginine peptides, from dose response graph FIG. 1e", "value": 440, "unit": "nM"}]}, {"compound": "PRRRRASRRIRRRRRPRVSRRRRRGGRRRR [Ptm4]", "values": [{"measurement": "protection of bEND3 cells (cell death / viability after in vitro ischemia/OGD)", "setting": "[5]", "value": "significantly increased cell viability"}, {"measurement": "protection of bEND3 cells (cell death / viability after in vitro ischemia/OGD)", "setting": "[5]; listed as ptm4", "value": "protective"}, {"measurement": "neuroprotection when added for 15 minutes after OGD", "setting": "[2]", "value": "neuroprotective"}, {"measurement": "neuroprotection in the OGD model (overall statement)", "setting": "[2]; discussion summary", "value": "neuroprotective"}, {"measurement": "neuroprotection (neuronal viability)", "setting": "[4]; peptide 15 min prior to and during glutamic acid exposure, viability 24 h, MTS", "value": "neuroprotective"}]}, {"compound": "PRRRRSSSRPVRRRRRPRVSRRRRRRGGRRRR [Ptm5]", "values": [{"measurement": "astrocyte cell death following peptide exposure", "setting": "[6]", "value": "did not cause significant astrocyte cell death"}]}, {"compound": "VSRRRRRRGGRRRR [LMWP]", "values": [{"measurement": "astrocyte cell death following peptide exposure", "setting": "[6]", "value": "did not cause significant astrocyte cell death"}]}, {"compound": "PRRRRRSSSRPIRRRRRPRASRRRRRGGRRRR [Ptm1]", "values": [{"measurement": "astrocyte cell death following peptide exposure", "setting": "[6]", "value": "did not cause significant astrocyte cell death"}]}]}
